Measured values reported in publication PMC11877286, “Discovery of novel theophylline derivatives bearing tetrazole scaffold for the treatment of Alzheimer's disease” (RSC Advances, 2025).

Columns and labels:
AChE = molecular target: T1, AChE (Homo sapiens, UniProt P22303); assay: biochemical; conditions: five concentrations 256 μM to 16 μM, triplicate, pH 8.0 buffer
T1 construct: purchased Sigma-Aldrich
Method: AChE inhibition was assessed on a Varioskan Lux 96-well plate reader. […] The IC50 values were determined using TableCurve 2Dv4 software.

BACE1 = molecular target: T2, BACE1 (Homo sapiens, UniProt P56817); assay: BACE1 Inhibitor Screening Kit (FRET substrate); format: biochemical; conditions: 200 μM compound
T2 construct: purchased Beyotime Biotech
T2 sequence (P56817 46-501, species assumed): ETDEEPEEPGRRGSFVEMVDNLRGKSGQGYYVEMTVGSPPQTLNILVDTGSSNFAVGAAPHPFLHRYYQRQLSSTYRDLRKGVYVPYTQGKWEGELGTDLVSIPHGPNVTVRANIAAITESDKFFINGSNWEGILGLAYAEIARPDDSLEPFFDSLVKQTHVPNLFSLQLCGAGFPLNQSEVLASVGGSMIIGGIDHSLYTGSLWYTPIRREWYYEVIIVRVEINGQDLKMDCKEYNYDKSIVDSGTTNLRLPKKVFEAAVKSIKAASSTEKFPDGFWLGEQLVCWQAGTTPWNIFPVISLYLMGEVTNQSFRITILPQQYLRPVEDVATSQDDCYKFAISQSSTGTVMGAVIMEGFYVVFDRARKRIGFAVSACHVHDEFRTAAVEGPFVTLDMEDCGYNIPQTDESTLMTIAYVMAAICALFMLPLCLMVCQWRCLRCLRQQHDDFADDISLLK
Method: Briefly, BACE1 was incubated with various concentrations of compounds for 5 min at 37 °C in a black 96-well plate, followed by adding a specific fluorescence resonance energy transfer (FRET) substrate into the reaction mixture. […] The inhibitory percentage of BACE1 activity was calculated as following: I(%) = (ΔFIcontrol − ΔFIcompound) × 100/ΔFIcontrol, in which ΔFI denotes the change of fluorescent intensity per min. The inhibitory activity of compounds was initially screened at a fixed concentration of 200 μM.

T1 sequence (P22303 32-614): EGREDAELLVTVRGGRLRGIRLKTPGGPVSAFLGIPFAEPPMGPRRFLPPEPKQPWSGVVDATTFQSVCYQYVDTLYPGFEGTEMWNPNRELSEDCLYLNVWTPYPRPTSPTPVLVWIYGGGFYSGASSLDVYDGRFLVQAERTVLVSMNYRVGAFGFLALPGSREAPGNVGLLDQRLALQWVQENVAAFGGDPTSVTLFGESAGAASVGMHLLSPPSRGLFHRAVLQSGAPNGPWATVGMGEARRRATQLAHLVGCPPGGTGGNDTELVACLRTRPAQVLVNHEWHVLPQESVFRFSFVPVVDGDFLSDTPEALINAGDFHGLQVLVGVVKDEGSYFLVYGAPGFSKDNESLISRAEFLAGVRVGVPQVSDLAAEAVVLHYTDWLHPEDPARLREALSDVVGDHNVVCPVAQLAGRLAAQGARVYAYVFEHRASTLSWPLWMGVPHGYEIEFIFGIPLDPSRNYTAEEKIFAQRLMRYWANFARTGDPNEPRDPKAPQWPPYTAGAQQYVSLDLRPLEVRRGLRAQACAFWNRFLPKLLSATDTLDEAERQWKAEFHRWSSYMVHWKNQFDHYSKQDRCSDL

Structure (SMILES)	IC50 (AChE)	inhibition at 200 µM (BACE1)
COc1ccc(OC(=O)CCCCCn2nnc(Cn3cnc4c3c(=O)n(C)c(=O)n4C)n2)cc1 [Compound 19]	267 ± 30.4 µM	-1.23 ± 0.35%
Cn1c(=O)c2c(ncn2Cc2nnn(CCCCCCC(=O)Nc3ccc(Cl)cc3)n2)n(C)c1=O [Compound 21]	126 ± 22.4 µM	12.2 ± 0.47%
Cn1c(=O)c2c(ncn2Cc2nnnn2CCCCCCC(=O)Nc2ccc(Br)cc2)n(C)c1=O [Compound 25]	70.3 ± 0.1 µM	-0.48 ± 0.76%
Cn1c(=O)c2c(ncn2Cc2nnn(CCCCCC(=O)Oc3ccccc3)n2)n(C)c1=O [Compound 18]	94.4 ± 8.27 µM	0.07 ± 3.57%
Cn1c(=O)c2c(ncn2Cc2nnn(CCCCCCC(=O)Nc3cccc(Cl)c3)n2)n(C)c1=O [Compound 20]	221 ± 37.7 µM	10.7 ± 0.54%
COc1ccc(OC(=O)CCCCCCn2nnc(Cn3cnc4c3c(=O)n(C)c(=O)n4C)n2)cc1 [Compound 24]	106 ± 25.7 µM	0.74 ± 0.17%
Cn1c(=O)c2c(ncn2Cc2nnn(CCCCCC(=O)Nc3ccc(F)c(Cl)c3)n2)n(C)c1=O [Compound 16]	115 ± 10.6 µM	-1.54 ± 1.19%
Cn1c(=O)c2c(ncn2Cc2nnnn2CCCCCCC(=O)Nc2ccc(F)c(Cl)c2)n(C)c1=O [Compound 26]	55.4 ± 18.6 µM	8.89 ± 0.49%
Cn1c(=O)c2c(ncn2Cc2nnn(CCCCCC(=O)Nc3ccc(Br)cc3)n2)n(C)c1=O [Compound 15]	84.1 ± 20.2 µM	8.94 ± 1.45%
Cn1c(=O)c2c(ncn2Cc2nnn(CCCCC(=O)Nc3ccccc3)n2)n(C)c1=O [Compound 11]	110 ± 17.5 µM	-0.32 ± 2.05%
Cn1c(=O)c2c(ncn2Cc2nnn(CCCCCC(=O)Nc3cccc(Cl)c3)n2)n(C)c1=O [Compound 14]	153 ± 45 µM	-2.01 ± 0.83%
Cn1c(=O)c2c(ncn2Cc2nnn(CCCCC(=O)Nc3ccc(I)cc3F)n2)n(C)c1=O [Compound 12]	15.68 ± 0.06 µM	18.2 ± 3.9%
Cn1c(=O)c2c(ncn2Cc2nnn(CCCCCCC(=O)Nc3ccc(Br)cc3)n2)n(C)c1=O [Compound 22]	63.5 ± 2.48 µM	1.56 ± 3.43%
Cn1c(=O)c2c(ncn2Cc2nnn(CCCCCC(=O)Nc3ccc(I)cc3F)n2)n(C)c1=O [Compound 17]	105 ± 12.8 µM	18.7 ± 2.26%
COc1ccc(OC(=O)CCCCn2nnc(Cn3cnc4c3c(=O)n(C)c(=O)n4C)n2)cc1 [Compound 13]	303 ± 34.1 µM	1.4 ± 0.03%
Cn1c(=O)c2c(ncn2Cc2nnn(CCCCCCC(=O)Nc3ccc(F)c(Cl)c3)n2)n(C)c1=O [Compound 23]	110 ± 17.2 µM	12.6 ± 0.45%
Cn1c(=O)c2c(ncn2Cc2nnnn2CCCCCCC(=O)Nc2ccc(I)cc2F)n(C)c1=O [Compound 27]	143 ± 23.1 µM	7.69 ± 0.86%
